Reference: patent US10941114B2, “Small molecule lipid II inhibitors” (University Of Maryland, Baltimore, priority 2015, dated 2021)
Values after ≈ are worked out from the molar mass of the structure shown. Counter-ions that a name gives are not always drawn. Like-named read-outs stand apart in the source and are kept apart here.

Columns and labels:
HeLa cells = experiment: Cytotoxicity testing (CC50, MTS assay); details: for CC50: HeLa cells
Escherichia coli = experiment: Antibacterial activity assay (MIC, broth dilution); assay type: cell-based
in vivo [1] = details: CD1, mouse, plasma, iv, 10 mg/kg
[2] = in vivo, iv, 10 mg/kg
in vivo [3] = details: both, ICR, mouse
Staphylococcus aureus = experiment: Antibacterial activity assay (MIC, broth dilution); assay type: cell-based; parameters: S. aureus Killing / Bacterial Killing S. aureus: unit not given here; details: for MIC: Staphylococcus aureus
[4] = Pharmacokinetic study in mice (plasma concentration by LC/MS/MS)
Enterococcus faecium = experiment: Antibacterial activity assay (MIC, broth dilution); assay type: cell-based; parameters: Bacterial Killing E. faecium: unit: ug/mL
How it was run: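 Broth dilution MIC per CLSI (M07-A10) in cation-adjusted Mueller Hinton broth with 10% brain-heart infusion; MIC is the lowest concentration preventing visible growth, in μg/mL. Some compounds were run by broth microdilution.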

[5] = Cytotoxicity testing (CC50, MTS assay); details: human
Acinetobacter baumannii = experiment: Antibacterial activity assay (MIC, broth dilution); assay type: cell-based; details: for MIC: Acinetobacter baumannii
How it was run: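 Broth dilution and broth microdilution following CLSI standards (M07, eighth and tenth editions). MIC taken as the lowest compound concentration preventing visible bacterial growth.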

[6] = Maximum Tolerated Dose (MTD) and in vivo toxicity at the MTD; details: dose-escalation; final MTD
[7] = Surface Plasmon Resonance determination of Lipid II binding; details: SPR; FIG. 16
Procedure: Short-chain water-soluble LII containing a lipid tail of three isoprene units (3-LII) was generated and purified essentially according to methods known in the art. See Breukink et al., Lipid II is an intrinsic component of the pore induced by nisin in bacterial membranes. J. Biol. Chem. 278(22):19898-19903, 2003, the contents of which are hereby incorporated by reference. Typically, M. flavus vesicles (120 μmol lipid-Pi) were incubated together with 500 μmol UDP-GlcNAc, 500 μmol UDP-MurNAC-pentapeptide and 400 μmol farnesyl phosphate in 100 mM Tris-HCl pH 8.0, 5 mM MgCl2. The incubation period was approximately two hours at room temperature for 3-LII (3-P). The synthesis of 3-Lipid II was followed by RP-8 reversed phase TLC (Merck™) developed with 75% methanol. For purification, the membranes were removed by centrifugation at 40,000×g; the supernatant was collected and loaded on a C18 HPLC column and eluted with a linear gradient from 50 mM ammonium bicarbonate to 100% methanol in 30 minutes. Farnesyl-Lipid II (3-Lipid II) eluted at approximately 60% methanol. Its identity was confirmed by mass spectroscopy.
Surface Plasmon Resonance binding experiments were carried out on a BIAcore T100 system (BIAcore™ Inc., Piscataway, N.Y.) at 25° C. The assay buffer was 10 mM HEPES, 150 mM NaCl, 0.05% surfactant P20, pH 7.4 (+3 mM EDTA) supplemented with 10% DMSO. 3-Lipid II (50 RUs) was immobilized on CMS sensor chips using the amine-coupling chemistry recommended by the manufacturer. For initial determination of binding, compounds were introduced into the flow-cells (30.mu·1/min) in the running buffer at 10 μM. Resonance signals were corrected for nonspecific binding by subtracting the background of the control flow-cell. Binding to immobilized 3-LII on the chip surface was determined and scored “yes” in Table 5 when more than 20 Resonance Units or RUs were detected. Detection of less than 20 RUs was scored as “no”, meaning no significant binding to LII. After each analysis, the sensor chip surfaces were regenerated with 50 mM NaOH for 30 seconds at a flow rate 100 μL/min, and equilibrated with the buffer prior to next injection. For binding kinetics studies, binding isotherms were analyzed with manufacturer-supplied software for BIAcore™ T100.

Pseudomonas aeruginosa = experiment: Antibacterial activity assay (MIC, broth dilution); assay type: cell-based; details: MMX#-ATCC# 103-27853
Enterococcus faecalis = experiment: Antibacterial activity assay (MIC, broth dilution); assay type: cell-based
Streptococcus pneumoniae = experiment: Antibacterial activity assay (MIC, broth dilution); assay type: cell-based
[8] = Liver microsome stability testing; assay type: in vitro ADME; details: positive control; human liver microsomes
Procedure: The in vitro microsome stability assay was performed using human liver microsomes and a Biomek FXP™ liquid handling workstation to deliver reagents to a deep 96-well plate on a shaking peltier with temperature controls. Human liver microsomes were purchased from Corning™. The test compound was incubated in an aqueous reaction mixture (200 μL total volume) consisting of human liver microsomes (150 mixed donor pool) and NADPH Regenerating System Solutions A and B (Corning™) in the presence of 100 mM potassium phosphate buffer (pH 7.4). NADPH Regenerating System Solution A comprises nicotinamide adenine dinucleotide phosphate (NADP+) and glucose 6-phosphate; NADPH Regenerating System Solution B contains glucose-6-phosphate dehydrogenase. Solutions A and B were combined prior to adding to the reaction plate to generate a supply of NADPH. The NADPH was added last to initiate the reactions simultaneously. The final concentration of the test compound was 10 μM and the microsomal protein concentration was 0.5 mg/mL. […]
The half-life (t½) was calculated using the following equation:
[formula] where “slope” is the slope of the line formed by ln(% remaining test compound) vs. time. The in vitro intrinsic clearance (CLint) was calculated using equation: […]

[9] = determined as in Example 1E (MIC)
[10] = A. baumannii 2-2-2 (colistin-resistant clinical isolate), average of two replicates, read-out: MIC AB
[11] = Table 16, CLSI M07-A10 dilution method, read-out: MIC A. baumannii
[12] = S. aureus USA300 (MRSA), average of two replicates, read-out: MIC SA
[13] = Table 16, CLSI M07-A10 dilution method, read-out: MIC S. aureus
[14] = ATCC 1509 / VRE, text: E. faecium EF1509 (VRE), footnote: Enterococcus faecalis ATCC 1509, average of two replicates, read-out: MIC EF
[15] = Enterococcus faecium, Table 16, CLSI M07-A10 dilution method, read-out: MIC E. faecium
[16] = single dose of 10 mg/kg by intravenous injection in CD1 mice (n=3)
[17] = A. baumannii 2-2-2 (colistin-resistant clinical isolate), average of two replicates
[18] = S. aureus USA300 (MRSA), average of two replicates
[19] = single dose of 10 mg/kg by intravenous injection
[20] = text: E. faecium EF1509 (VRE), footnote: Enterococcus faecalis ATCC 1509, average of two replicates

CN(C)c1ccc(/C=C/c2cc(-c3ccc(F)cc3)cc(-c3ccc(F)cc3)[o+]2)cc1 [Compound 7jc47-1, (E)-2-(4-(dimethylamino)styryl)-4,6-bis(4-fluorophenyl) pyrylium boron tetrafluoride salt]
cytotoxicity in vitro (HeLa cells): no observable cytotoxicity in vitro | Bacterial Killing E. coli (Escherichia coli; [9]): >64 | AUC(0-inf) (in vivo [1]): 578 ± 175 ng·h/mL | Cmax (in vivo [1]): 3220 ± 1500 ng/mL | MRT (in vivo [1]): 1.74 ± 0.49 h | Vd (in vivo [1]): 46.3 ± 12.9 L/kg | half-life (in vivo [1]): ~7 h | AUCextrap ([2]; CD1, mouse): 2.25 ± 1.13% | Cl3 ([2]; CD1, mouse): 23.6 ± 1.7 mL/min/kg | MTD at 72 h (in vivo [3]): 60 mg/kg | Bacterial Killing S. aureus (Staphylococcus aureus; [9]): 1 | T1/2 ([4]; mouse, in vivo, iv, 10 mg/kg): 6.81 ± 1.33 h | Bacterial Killing E. faecium (Enterococcus faecium; [9]): 1

Cc1ccc(-c2cc(-c3ccc(Cl)cc3)cc(/C=C/c3ccc(N(C)CCO)cc3)[n+]2C)cc1.[I-] [Compound 9p, (E)-4-(4-chlorophenyl)-2-(4-((2-hydroxyethyl)(methyl)amino)styryl)-1-methyl-6-(p-tolyl)pyridin-1-ium iodide]
CC50 at 24 h ([5]; HeLa cells): 5.5 µg/mL | MIC (Acinetobacter baumannii; [10]): 16 µg/mL | MIC (Acinetobacter baumannii; [11]): 16 µg/mL | MIC (Staphylococcus aureus; [12]): 0.25 µg/mL | MIC (Staphylococcus aureus; [13]): 0.25 µg/mL | MIC (Enterococcus faecium; [14]): 2 µg/mL | MIC (Enterococcus faecium; [15]): 2 µg/mL

Cc1ccc(-c2cc(-c3ccc(Br)cc3)cc(/C=C/c3ccc(N(C)C)cc3)[n+]2C)c(C)c1.[I-] [Compound 9s, (E)-4-(4-bromophenyl)-2-(4-(dimethylamino)styryl)-6-(2,4-dimethylphenyl)-1-methylpyridin-1-ium iodide]
CC50 at 24 h [5]: 3.5 µg/mL | MIC (Acinetobacter baumannii; [10]): 16 µg/mL | MIC (Acinetobacter baumannii; [11]): 16 µg/mL | MIC (Staphylococcus aureus; [12]): 0.25 µg/mL | MIC (Staphylococcus aureus; [13]): 0.25 µg/mL | MIC (Enterococcus faecium; [14]): 1 µg/mL | MIC (Enterococcus faecium; [15]): 1 µg/mL

CCN(CC)c1ccc(/C=C/c2cc(-c3ccc(Br)cc3)cc(-c3ccc(C)c(C)c3)[n+]2C)cc1.[I-] [Compound 9v, (E)-4-(4-bromophenyl)-2-(4-(diethylamino)styryl)-6-(3,4-dimethylphenyl)-1-methylpyridin-1-ium iodide]
CC50 at 24 h ([5]; HeLa cells): 5.5 µg/mL | MIC (Acinetobacter baumannii; [10]): 4 µg/mL | MIC (Acinetobacter baumannii; [11]): 4 µg/mL | MIC (Staphylococcus aureus; [12]): 2 µg/mL | MIC (Staphylococcus aureus; [13]): 2 µg/mL | MIC (Enterococcus faecium; [14]): 4 µg/mL | MIC (Enterococcus faecium; [15]): 4 µg/mL

CN(CCC#N)c1ccc(/C=C/c2cc(-c3ccc(Br)cc3)cc(-c3ccc(Br)cc3)[n+]2C)cc1.[I-] [Compound 12c]
Maximum Tolerated Dose (MTD) [6]: 40 mg/kg | AUCInf [4, 16]: 2137 ± 455 ng·h/mL | AUCextrap [4, 16]: 12.9 ± 5.6% | Cl3 [4, 16]: 80.3 ± 16.6 mL/min/kg | Cmax [4, 16]: 3975 ± 739 ng/mL | MRT [4, 16]: 9.13 ± 3.17 h | T1/2 [4, 16]: 11 ± 2.37 h | Vss—obs [4, 16]: 46.3 ± 23.3 L/kg

CC(C)C[n+]1c(/C=C/c2ccc(N(C)C)cc2)cc(-c2ccc(Br)cc2)cc1-c1ccc(Br)cc1.[I-] [EL-1]
CC50 (HeLa cells; exposure 24 hour): 5 µg/mL | MIC AB (Acinetobacter baumannii; [17]): 4 µg/mL | AUCInf ([2]; mouse): 1528 ± 286 ng·h/mL | AUCextrap ([2]; mouse): 5.15 ± 1.28% | Cl3 ([2]; mouse): 111 ± 20 mL/min/kg | Cl—obs ([2]; mouse): 111 ± 20 mL/min/kg | MRT ([2]; mouse): 4.42 ± 0.72 h | T1/2 ([2]; mouse): 8.33 ± 0.84 h | Maximum Tolerated Dose (MTD) [6]: 25 mg/kg | MIC SA (Staphylococcus aureus; [18]): 0.5 µg/mL | Lipid II binding affinity [7]: below micromolar | MIC EF (Enterococcus faecium; E. faecium EF1509 (VRE), average of two replicates): 1 µg/mL

Cc1ccc(-c2cc(-c3ccc(Br)cc3)cc(/C=C/c3ccc(N(C)C)cc3)[n+]2C)cc1.[I-] [EL-8]
CC50 (HeLa cells; exposure 24 hours): 12 µg/mL | MIC AB (Acinetobacter baumannii; [17]): 4 µg/mL | AUCInf ([2]; mouse): 764 ± 187 ng·h/mL | AUClast/D ([2]; mouse): 729 ± 179 mg·h/mL | MRT ([2]; mouse): 1.74 ± 0.49 h | T1/2 ([2]; mouse): 9.4 ± 1.01 h | MIC SA (Staphylococcus aureus; [18]): 0.5 µg/mL | Lipid II binding affinity [7]: below micromolar | AUCextrap [4, 19]: 4.63 ± 0.51% | AUClast/D [4, 19]: 72.9 ± 17.9 ng·h/mL | MIC EF (Enterococcus faecium; [20]): 4 µg/mL

Cc1ccc(/C=C/c2cc(-c3ccc(Br)cc3)cc(-c3ccc(Br)cc3)[n+]2C)cc1.[I-] [EL-11]
CC50 (HeLa cells; exposure 24 hours): 5 µg/mL | MIC AB (Acinetobacter baumannii; [17]): >64 µg/mL | AUCInf ([2]; mouse): 2137 ± 455 ng·h/mL | AUClast/D ([2]; mouse): 1853 ± 372 mg·h/mL | Cl—obs ([2]; mouse): 80.3 ± 16.6 mL/min/kg | MRT ([2]; mouse): 9.13 ± 3.17 h | T1/2 ([2]; mouse): 11 ± 2.37 h | MIC SA (Staphylococcus aureus; [18]): 1 µg/mL | Lipid II binding affinity [7]: below micromolar | AUCextrap [4, 19]: 12.9 ± 5.6% | AUClast/D [4, 19]: 185.3 ± 37.3 ng·h/mL | MIC EF (Enterococcus faecium; [20]): 4 µg/mL

CC(=O)NC[C@H]1CN(c2ccc(N3CCOCC3)c(F)c2)C(=O)O1 [Linezolid, linezolid, reference compound]
MIC Pseudomonas aeruginosa (Pseudomonas aeruginosa): > 64 µg/mL | MIC Escherichia coli (Escherichia coli; MMX#-ATCC# 102.25922): > 64 µg/mL | MIC Enterococcus faecalis (Enterococcus faecalis; MMX#-ATCC# 101-29212): 2 µg/mL (≈ 5.93 µM) | MIC Enterococcus faecalis (VRE) (Enterococcus faecalis; MMX#-ATCC# 848-NA, vancomycin-resistant): 2 µg/mL (≈ 5.93 µM) | MIC Staphylococcus aureus (Staphylococcus aureus; MMX#-ATCC# 100-29213): 4 µg/mL (≈ 11.9 µM) | MIC Staphylococcus aureus (MRSA) (Staphylococcus aureus; MMX#-ATCC# 757-NA, methicillin-resistant): 4 µg/mL (≈ 11.9 µM) | MIC Streptococcus pneumoniae (PRSP) (Streptococcus pneumoniae; MMX#-ATCC# 884-NA, penicillin-resistant): 2 µg/mL (≈ 5.93 µM) | MIC Streptococcus pneumoniae (Streptococcus pneumoniae; MMX#-ATCC# 1195-49619): 2 µg/mL (≈ 5.93 µM)

COc1ccc2c(c1)[C@]13CCCC[C@@H]1[C@H](C2)N(C)CC3 [dextromethorphan]
intrinsic clearance [8]: 31 µL/min/mg
